Reference: US10168342B2, “Lipid probes and uses thereof” (THE SCRIPPS RESEARCH INSTITUTE, priority 2015, dated 2019)
Where two headings read alike, the source gives them in different places.

What was measured:
[1] = molecular target: T1, AEA-DA lipid probe targets in Neuro2a cells (Mus musculus, UniProt O70252); details: for SILAC ratio, HMOX2 (P30519): Neuro2a cells, AEA-DA probe
T1 sequence (O70252 1-315): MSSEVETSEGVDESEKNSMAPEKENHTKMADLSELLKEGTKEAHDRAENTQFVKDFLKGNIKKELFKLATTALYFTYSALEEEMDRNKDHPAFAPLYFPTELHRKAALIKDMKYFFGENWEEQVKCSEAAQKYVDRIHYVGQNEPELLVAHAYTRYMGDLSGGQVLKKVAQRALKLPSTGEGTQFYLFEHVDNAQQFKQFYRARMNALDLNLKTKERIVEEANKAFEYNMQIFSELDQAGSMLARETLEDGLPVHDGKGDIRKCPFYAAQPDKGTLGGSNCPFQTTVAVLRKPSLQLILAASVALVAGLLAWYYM

[2] = molecular target: T2, AEA-DA lipid probe targets in Neuro2a cells (Mus musculus, UniProt Q8BP40)
T2 sequence (Q8BP40 26-418): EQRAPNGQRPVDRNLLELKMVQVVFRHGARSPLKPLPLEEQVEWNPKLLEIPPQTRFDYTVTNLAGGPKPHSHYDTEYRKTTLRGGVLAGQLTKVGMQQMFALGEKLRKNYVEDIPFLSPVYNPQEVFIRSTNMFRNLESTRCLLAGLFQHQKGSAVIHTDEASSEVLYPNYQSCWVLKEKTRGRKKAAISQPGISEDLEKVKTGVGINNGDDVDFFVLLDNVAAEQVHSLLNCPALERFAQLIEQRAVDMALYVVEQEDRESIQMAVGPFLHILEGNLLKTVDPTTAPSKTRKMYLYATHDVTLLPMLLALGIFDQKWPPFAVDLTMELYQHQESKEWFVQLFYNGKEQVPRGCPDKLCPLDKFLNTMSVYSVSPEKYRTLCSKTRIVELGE

[3] = molecular target: T3, AEA-DA lipid probe targets in Neuro2a cells (Mus musculus, UniProt Q8BGC4)
T3 sequence (Q8BGC4 1-377): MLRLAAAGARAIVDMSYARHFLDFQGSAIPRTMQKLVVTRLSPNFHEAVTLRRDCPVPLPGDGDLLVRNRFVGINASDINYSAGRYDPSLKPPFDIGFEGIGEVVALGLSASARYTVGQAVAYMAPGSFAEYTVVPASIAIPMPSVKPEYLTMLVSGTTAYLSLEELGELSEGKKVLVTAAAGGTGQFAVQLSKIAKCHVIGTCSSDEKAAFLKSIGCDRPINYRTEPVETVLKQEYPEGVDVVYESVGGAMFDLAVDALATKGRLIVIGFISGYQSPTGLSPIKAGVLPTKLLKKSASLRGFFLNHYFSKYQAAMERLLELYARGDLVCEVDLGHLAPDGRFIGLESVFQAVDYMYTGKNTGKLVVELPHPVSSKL

[4] = molecular target: T4, AEA-DA lipid probe targets in Neuro2a cells (Mus musculus, UniProt Q9CQF9)
T4 sequence (Q9CQF9 29-505): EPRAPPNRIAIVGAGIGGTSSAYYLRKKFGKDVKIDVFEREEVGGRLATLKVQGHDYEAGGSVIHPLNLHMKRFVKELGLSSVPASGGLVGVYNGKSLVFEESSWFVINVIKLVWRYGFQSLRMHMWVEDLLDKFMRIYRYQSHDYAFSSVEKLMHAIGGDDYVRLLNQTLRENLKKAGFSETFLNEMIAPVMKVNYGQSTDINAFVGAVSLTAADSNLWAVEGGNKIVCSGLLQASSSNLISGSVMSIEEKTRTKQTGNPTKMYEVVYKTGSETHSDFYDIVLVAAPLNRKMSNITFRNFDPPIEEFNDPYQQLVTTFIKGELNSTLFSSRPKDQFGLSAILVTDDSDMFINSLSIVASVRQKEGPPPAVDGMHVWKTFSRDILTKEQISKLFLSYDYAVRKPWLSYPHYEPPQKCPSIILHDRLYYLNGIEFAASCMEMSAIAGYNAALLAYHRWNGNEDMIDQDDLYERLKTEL

[5] = molecular target: T5, AEA-DA lipid probe targets in Neuro2a cells (Mus musculus, UniProt Q924Z4); details: for SILAC ratio, CERS2 (Q924Z4): Neuro2a cells, AEA-DA probe
T5 sequence (Q924Z4 1-380): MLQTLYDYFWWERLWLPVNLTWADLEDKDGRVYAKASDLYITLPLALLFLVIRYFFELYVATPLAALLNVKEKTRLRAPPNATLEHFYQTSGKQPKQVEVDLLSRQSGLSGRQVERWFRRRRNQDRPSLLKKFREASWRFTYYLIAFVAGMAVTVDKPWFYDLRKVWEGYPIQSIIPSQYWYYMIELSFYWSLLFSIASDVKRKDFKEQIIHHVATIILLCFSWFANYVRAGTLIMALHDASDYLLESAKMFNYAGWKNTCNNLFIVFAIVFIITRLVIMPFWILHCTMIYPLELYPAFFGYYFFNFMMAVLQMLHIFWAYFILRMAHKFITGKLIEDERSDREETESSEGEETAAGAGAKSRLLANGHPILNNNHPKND

[6] = molecular target: T6, AEA-DA lipid probe targets in Neuro2a cells (Mus musculus, UniProt Q8VD00)
T6 sequence (Q8VD00 1-176): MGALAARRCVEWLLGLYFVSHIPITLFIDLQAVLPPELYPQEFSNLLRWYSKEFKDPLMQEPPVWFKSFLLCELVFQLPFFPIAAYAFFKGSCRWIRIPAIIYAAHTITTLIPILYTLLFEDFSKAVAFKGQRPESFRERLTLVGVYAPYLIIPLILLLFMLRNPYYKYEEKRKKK

SMILES | SILAC ratio, HMOX2 (P30519) ([1]; competitor 25 μM) | SILAC ratio, Hmox2 ([1]; competitor 25 μM) | SILAC ratio, Acp6 ([2]; competitor 25 μM) | SILAC ratio, Zadh2 ([3]; competitor 25 μM) | SILAC ratio, Pcyox1 ([4]; competitor 25 μM) | SILAC ratio, CERS2 (Q924Z4) ([5]; competitor 25 μM) | SILAC ratio, Cers2 ([5]; competitor 25 μM) | SILAC ratio, Tmem97 ([6]; competitor 25 μM) | other results
CCCCC/C=C\C/C=C\C/C=C\C/C=C\CCCC(=O)NCCO [AEA, anandamide, reference compound] | – | – | – | – | – | – | – | – | SILAC ratio, HMOX2 (P30519) ([1]; competitor 200 μM): 3.2; SILAC ratio, Hmox2 ([1]; competitor 200 μM): 3.2; SILAC ratio, Acp6 ([2]; competitor 200 μM): 2.5; SILAC ratio, Zadh2 ([3]; competitor 200 μM): 4.8; SILAC ratio, Pcyox1 ([4]; competitor 200 μM): 1.7; SILAC ratio, CERS2 (Q924Z4) ([5]; competitor 200 μM): 2.4; SILAC ratio, Cers2 ([5]; competitor 200 μM): 2.4; SILAC ratio, Tmem97 ([6]; competitor 200 μM): 1.8
O=C(/C=C/c1cccnc1)NCCCCC1CCN(C(=O)c2ccccc2)CC1 [FK-866, reference compound] | 1.0 | 1.0 | 1.2 | 12.6 | 1.2 | 1.2 | 1.2 | 1.0 | –
CN1CCN(C(=O)c2c(-c3ccccc3)c3cc([N+](=O)[O-])ccc3n2C)CC1 [KML110, (1-Methyl-5-nitro-3-phenyl-1H-indol-2-yl)(4-methylpiperazin-1-yl)methanone] | – | 1.5 | 1.6 | 1.5 | 1.5 | – | 2.2 | 1.6 | –
CN1CCN(C(=O)c2[nH]c3ccc([N+](=O)[O-])cc3c2-c2ccccc2)CC1 [MJN228, (4-Methylpiperazin-1-yl)(5-nitro-3-phenyl-1H-indol-2-yl)methanone] | 1.4 | 1.4 | 1.5 | 1.5 | 1.4 | 3.1 | 3.1 | 1.7 | SILAC ratio, Hmox2 ([1]; competitor 10 μM): 1.1; SILAC ratio, Hmox2 ([1]; competitor 50 μM): 1.3; SILAC ratio, Hmox2 ([1]; competitor 100 μM): 1.7; SILAC ratio, Acp6 ([2]; competitor 10 μM): 1.5; SILAC ratio, Acp6 ([2]; competitor 50 μM): 1.8; SILAC ratio, Acp6 ([2]; competitor 100 μM): 2.3; SILAC ratio, Zadh2 ([3]; competitor 10 μM): 1.4; SILAC ratio, Zadh2 ([3]; competitor 50 μM): 2.3; SILAC ratio, Zadh2 ([3]; competitor 100 μM): 6.0; SILAC ratio, Pcyox1 ([4]; competitor 10 μM): 1.2; SILAC ratio, Pcyox1 ([4]; competitor 50 μM): 1.6; SILAC ratio, Pcyox1 ([4]; competitor 100 μM): 2.2; SILAC ratio, Cers2 ([5]; competitor 10 μM): 2.0; SILAC ratio, Cers2 ([5]; competitor 50 μM): 5.2; SILAC ratio, Cers2 ([5]; competitor 100 μM): 6.8; SILAC ratio, Tmem97 ([6]; competitor 10 μM): 1.4; SILAC ratio, Tmem97 ([6]; competitor 50 μM): 2.1; SILAC ratio, Tmem97 ([6]; competitor 100 μM): 3.2
C=CCN(C)CCCCCCOc1ccc(C(=O)c2ccc(Br)cc2)c(F)c1 [Ro 48-8071, reference compound] | 1.3 | 1.3 | 0.9 | 1.0 | 1.8 | 1.6 | 1.6 | 10.0 | –
